Patent US4595696A, “Polyene compounds useful in the treatment of allergic responses” (USV Pharmaceutical Corp., priority 1985, dated 1986)
Read-outs that look alike come from different tables or passages of the source.

Tests used:
[1] = molecular target: T1, 5-Lipoxygenase (Rattus norvegicus, UniProt P12527); test: Inhibition of 5-Lipoxygenase, rat PMN (Protocol 1); assay type: cell-based; settings: rat neutrophils, 3 minutes at 30° C., 5-HETE formation; for IC50: [14C]-arachidonic acid and Calcium Ionophore A23187, read-out: Lox, Rat PMN (I50); for Inhibition of 5-Lipoxygenase, Lox, Rat PMN (given as %): concentration not given
T1 construct: endogenous in cells; host or cells: rat neutrophils (PMN)
T1 sequence (P12527 1-673): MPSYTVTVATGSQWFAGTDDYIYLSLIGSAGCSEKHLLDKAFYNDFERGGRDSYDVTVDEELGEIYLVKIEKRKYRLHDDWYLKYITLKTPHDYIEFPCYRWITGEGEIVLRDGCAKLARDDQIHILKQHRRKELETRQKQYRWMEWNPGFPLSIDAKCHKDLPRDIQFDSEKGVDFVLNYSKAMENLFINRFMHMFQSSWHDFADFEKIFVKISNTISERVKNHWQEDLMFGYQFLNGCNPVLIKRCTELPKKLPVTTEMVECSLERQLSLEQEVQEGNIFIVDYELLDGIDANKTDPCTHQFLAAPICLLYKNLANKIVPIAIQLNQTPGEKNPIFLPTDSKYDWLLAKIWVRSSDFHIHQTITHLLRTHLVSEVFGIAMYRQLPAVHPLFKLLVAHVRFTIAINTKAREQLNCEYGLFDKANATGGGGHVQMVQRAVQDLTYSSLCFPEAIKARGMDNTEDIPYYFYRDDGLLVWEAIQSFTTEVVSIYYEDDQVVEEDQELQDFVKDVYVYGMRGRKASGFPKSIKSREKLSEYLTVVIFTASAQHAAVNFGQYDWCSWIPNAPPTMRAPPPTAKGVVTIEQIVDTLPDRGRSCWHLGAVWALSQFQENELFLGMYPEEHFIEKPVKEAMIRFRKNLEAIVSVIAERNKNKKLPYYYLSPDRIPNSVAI
Experimental: Protocol 1 describes an assay to detect inhibitors of the lipoxygenase pathway. Such inhibitors are believed to be capable of modulating the biosynthesis of the leukotrienes, a property believed to be useful in treating asthma and inflammatory disease states. A suspension of rat neutrophils in buffer is incubated for 3 minutes at 30° C. with [^14 C]-arachidonic acid (AA) and Calcium Ionophore A23187. Citric acid (2M) is used to quench the reaction. […] The organic layer is washed with dilute acid and an aliquot is transferred to glass tubes and dried. […] The 5-HETE spots are visulaized with iodine, cut out and placed in scintillation vials for counting. After adjusting for the extraction efficiency, the amount (pmole) of [^14 C]-5-HETE in each of the tubes is quantitated. The net pmoles of 5-HETE are obtained by subtracting the pmoles of 5-HETE in the tubes containing buffer alone (blank) from the pmoles of 5-HETE in the tubes containing buffer and cells (control).

[2] = molecular target: T2, Phospholipase A2 (PLA2) (Rattus norvegicus, UniProt P14423); test: In Vitro Assay for Inhibitors of Phospholipase A2 (PLA2), rat platelets (Protocol II); assay type: biochemical
T2 construct: The PLA2 employed in this screen is obtained by aggregation of purified rat platelets; from tissue; host or cells: purified rat platelets, enzyme obtained by aggregation
T2 sequence (P14423 22-146): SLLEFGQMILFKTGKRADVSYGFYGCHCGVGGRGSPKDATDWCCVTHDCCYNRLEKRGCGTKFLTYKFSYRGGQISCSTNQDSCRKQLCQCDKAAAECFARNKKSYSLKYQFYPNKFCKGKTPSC
From the text: An assay has been developed to test the ability of the invented compounds on the activity of the phospholipases. The following protocol describes a means for testing the inhibitory effect of these compounds on Phospholipase A2 (PLA2).
In Vitro Assay for Inhibitors of Phospholipase A2 Assayed at pH 7.0 (PLA2)
The PLA2 employed in this screen is obtained by aggregation of purified rat platelets. In the enzyme assay phosphatidylcholine having ^14 C-labeled palmitate residues at R1 and R2 is employed as substrate. PLA2 acts by cleaving the R2 fatty acid ester bond yielding free fatty acid and lysophosphatidylcholine as follows: [drawing 15]
Following completion of the reaction, the assay medium is acidified and extracted with hexane, which takes up unreacted substrate and free fatty acid product. The hexane extract is passed over a short silica column which retains 99% of the phosphatidylcholine. The ^14 C-labeled palmitic acid is not retained (90% recovery in eluate) and is collected directly in scintillation counting vials. The released palmitic acid is conveniently quantitated by liquid scintillation spectrometry.
The compounds were tested at 100 μM in a buffer containing 0.3 mM unlabeled phosphatidylcholine (PC), 20-30,000 cpm of ^14 C(CPC), […], 1 mM CaCl2 and 50 mM tris-HCl adjusted to pH 7.2 with 1N NaOH. […] The temperature of the buffer was maintained at a temperature of 37° C. The reaction was initiated by addition of the enzyme and it was terminated 30 minutes later by the addition of […] of 1N HCl.
Following acidification, the samples were extracted with 2 ml of 2-propanol and 2 ml of hexane, vortexed and allowed to stand until the phases separated. Free fatty acids (FFA) and some unreacted substrate were taken up in the isopropanol-saturated hexane. The hexane phase of the extraction mixture was transferred to a short silica gell column which retained reacted PC but not the FFA. The column effluent was collected directly in scintillation vials. The columns were washed once with an additional 2 ml of hexane. The radio labeled FFA were quantitated by liquid scintillation spectrometry.

[3] = rat platelets PLA2, phosphatidylcholine substrate, pH 7.2, 37° C., 30 minutes, read-out: PHOSPHOLIPASE A2 INHIBITION Activity (I50)

SMILES | IC50 [1] | IC50 [2, 3] | also measured
CC(=O)Nc1ccc(OC(=O)/C=C(C)/C=C/C=C(C)/C=C/C2=C(C)CCCC2(C)C)cc1 [Example 1, 4-Acetamidophenyl Retinoate] | 56 µM | 56 µM | 
CC(=O)Nc1cccc(OC(=O)/C=C(C)/C=C/C=C(C)/C=C/C2=C(C)CCCC2(C)C)c1 [Example 2, 3-Acetamidophenyl Retinoate] | 55 µM | 48 µM | 
CC(=O)Nc1ccc(SC(=O)/C=C(C)/C=C/C=C(C)/C=C/C2=C(C)CCCC2(C)C)cc1 [Example 3, Retinoic Acid 4-Acetamidophenyl Thioester] | 2.3 µM | 34 µM | 
CC(=O)Nc1ccc(OC(=O)/C=C/C=C(C)/C=C/C=C(C)/C=C/C2=C(C)CCCC2(C)C)cc1 [Example 4, 4-Acetamidophenyl 5,9-dimethyl-11-(2,6,6-trimethyl-1-cyclohexen-1-yl)-2,4,6,8,10-undecapentaenoate] |  |  | IC50 [2]: 17 µM
CCOC(=O)/C=C(C)/C=C/C=C(C)/C=C/c1c(C)cc(OC)c(C)c1C [Ro 10 - 9359, reference compound] |  |  | Inhibition of 5-Lipoxygenase, Lox, Rat PMN (given as %) [1]: 10 ± 17%
CCNC(=O)/C=C(C)/C=C/C=C(C)/C=C/c1c(C)cc(OC)c(C)c1C [Ro 11 - 1430, reference compound] |  |  | Inhibition of 5-Lipoxygenase, Lox, Rat PMN (given as %) [1]: -11 ± 19%
CC1=C(/C=C/C(C)=C/C=C/C(C)=C/C(=O)O)C(C)(C)CCC1 [all trans retinoic acid, reference compound] | 90 µM |  | inhibition at 100 µM ([2]; at 100 μM, rat platelets PLA2, pH 7.2, 37° C., 30 minutes): 32%
